This experiment deals with Human osteosarcoma U20S cells. The experiment can be described thus: Assay to measure lysosome and autolysosome formation (acidic vesicle formation, LysoView/LysoTracker staining). Type of experiment: cell-based. Particulars: Homo sapiens, U2OS cells, concentration of 0.8 μM. On the procedure: Lysosomes play a fundamental role in the autophagic pathway by fusing with autophagosomes and creating ‘autolysosomes’ in order to digest their contents. Stimulation of lysosome and autolysosome formation by a compound is indicative of a stimulation of autophagy. The ability of compounds to stimulate lysosome and autolysosome formation, and thus autophagy, in live cells was assessed via fluorescent microscopy using various fluorescent stains for labelling and tracking acidic organelles (including lysosomes and autolysosomes) such as: LysoView™ 650 (70059 and 70059-T, Biotium), LysoViewTM633 (70058 and 70058-T, Biotium) and LysoTracker™ Deep Red (L12492, ThermoFisher Scientific). The cellular phenotype was quantitatively assessed for the induction of acidic vesicle formation and compared to a non-treated control, thus providing a measure of the ability of the compound under investigation to stimulate autophagy.
Representative procedure using LysoView™633 dye or LysoTracker™ Deep Red dye: Human osteosarcoma U20S cells (40,000 cells/well) were seeded in a 24 well glass bottom plate (Sensoplate, Greiner Bio-One) and were incubated overnight in a humidified atmosphere at 37° C. and 5% CO2. Cells were grown in DMEM (Gibco) supplemented with 10% Fetal Bovine Serum (FBS) and 100 units/ml penicillin and 100 μg/ml streptomycin (Invitrogen). After the attachment period, cells were treated with different compounds of interest (at various concentrations in DMSO) or DMSO (non-treated control) in cell culture medium and were incubated for 24 hours. Compound-containing medium was removed and cells were incubated with pre-warmed cell culture medium containing 1× LysoView™ 633 (70058 and 70058-T, Biotium) or 50 nM LysoTracker™ Deep Red (L12492, ThermoFisher Scientific) for 45 minutes at 37° C. Finally, cell nuclei were stained for 10 minutes using Hoechst 33342 (1 μg/mL) and then the medium was replaced with fresh medium. The 24 well plate was then fitted into a heated stage on the microscope and cells maintained at 37° C. Images were captured using appropriate filter set for Cy5 and DAPI detection with the EVOS M7000 Microscope (ThermoFisher Scientific). The cellular phenotype was visually assessed for the induction of acidic vesicle formation relative to the non-treated control; multiple images were acquired and analyzed using ImageJ or Cell Profiler.

Where [1] appears, read: read-out: Activity (percentage increase in acidic vesicle formation over the DMSO-treated control), Table 2.
Setting [2] is: read-out: Activity (percentage increase in acidic vesicle formation), Table 2a Preferred compounds.

Like-named read-outs stand apart in the source and are kept apart here.

Take `CC(C)N(C(=O)c1ccc(-c2cnn(-c3ccccc3)c2)[nH]1)C1CCNCC1` [Compound 5, 5-(1-phenyl-1H-pyrazol-4-yl)-N-(piperidin-4-yl)-N-(propan-2-yl)-1H-pyrrole-2-carboxamide]: the activation at 0.8 µM under setting [1] lay in the range of 30 to 50%. As for `NC[C@H]1CCCN1C(=O)c1ccc(-c2cnn(-c3ccccc3)c2)o1` [Compound 11, 1-[(2R)-1-[5-(1-phenyl-1H-pyrazol-4-yl)furan-2-carbonyl]pyrrolidin-2-yl]methanamine], the activation at 0.8 µM under setting [1] was in the range of 10 to 30%. For the compound `O=C(NC[C@@H]1CCNC1)c1cc(-c2cnn(-c3ccccc3)c2)cs1` [Compound 16, 4-(1-phenyl-1H-pyrazol-4-yl)-N-{[(3R)-pyrrolidin-3-yl]methyl}thiophene-2-carboxamide], the activation at 0.8 µM under setting [1] lay within 10 to 30%. As for `NCCCCCNC(=O)c1cc(-c2cnn(-c3ccccc3)c2)cs1` [Compound 17, N-(5-aminopentyl)-4-(1-phenyl-1H-pyrazol-4-yl)thiophene-2-carboxamide], under setting [1], the activation at 0.8 µM was 10 to 30%.

Regarding `CCCN(C(=O)c1csc(-c2cnn(-c3ccncc3)c2)n1)[C@@H]1CCNC1` [Compound 23, N-propyl-2-[1-(pyridin-4-yl)-1H-pyrazol-4-yl]-N-[(3R)-pyrrolidin-3-yl]-1,3-thiazole-4-carboxamide], the activation at 0.8 µM under setting [1] was 10 to 30%. As to `CCCN(C(=O)c1csc(-c2cnn(-c3cccc(OC(F)(F)F)c3)c2)n1)[C@H]1CCNC1` [Compound 25, N-propyl-N-[(3S)-pyrrolidin-3-yl]-2-{1-[3-(trifluoromethoxy)phenyl]-1H-pyrazol-4-yl}-1,3-thiazole-4-carboxamide], the activation at 0.8 µM under setting [1] fell in the range of 10 to 30%.

For the compound `CCCN(C(=O)c1csc(-c2cnn(-c3cccc(OC(F)(F)F)c3)c2)n1)[C@@H]1CCNC1` [Compound 26, N-propyl-N-[(3R)-pyrrolidin-3-yl]-2-{1-[3-(trifluoromethoxy)phenyl]-1H-pyrazol-4-yl}-1,3-thiazole-4-carboxamide], the activation at 0.8 µM under setting [1] is 30 to 50%. The same measure, in the same setting: next, `CCCN(C(=O)c1csc(-c2cnn(-c3cccc(C)c3)c2)n1)[C@H]1CCNC1` [Compound 28, 2-[1-(3-methylphenyl)-1H-pyrazol-4-yl]-N-propyl-N-[(3S)-pyrrolidin-3-yl]-1,3-thiazole-4-carboxamide]: 10 to 30%; `CCCN(C(=O)c1csc(-c2cnn(-c3cccc(C)c3)c2)n1)[C@@H]1CCNC1` [Compound 29, 2-[1-(3-methylphenyl)-1H-pyrazol-4-yl]-N-propyl-N-[(3R)-pyrrolidin-3-yl]-1,3-thiazole-4-carboxamide]: 30 to 50%. Regarding `CCCN(C(=O)c1csc(-c2cnn(-c3cccc(Cl)c3)c2)n1)[C@H]1CCNC1` [Compound 31, 2-[1-(3-chlorophenyl)-1H-pyrazol-4-yl]-N-propyl-N-[(3S)-pyrrolidin-3-yl]-1,3-thiazole-4-carboxamide], the activation at 0.8 µM under setting [1] was 10 to 30%. Consider `CCCN(C(=O)c1csc(-c2cnc(-c3ccccc3)o2)n1)[C@H]1CCNC1` [Compound 35, 2-(2-phenyl-1,3-oxazol-5-yl)-N-propyl-N-[(3S)-pyrrolidin-3-yl]-1,3-thiazole-4-carboxamide], for which the activation at 0.8 µM under setting [1] was in the range of 10 to 30%. Still for that read-out and setting: next, `CCCN(C(=O)c1csc(-c2cnn(-c3ccccc3)c2)c1)[C@@H]1CCNC1` [Compound 36, 5-(1-phenyl-1H-pyrazol-4-yl)-N-propyl-N-[(3R)-pyrrolidin-3-yl]thiophene-3-carboxamide]: 10 to 30%. As for `CCCN(C(=O)c1csc(-c2cnn(-c3ccc(Cl)cc3)c2)n1)[C@H]1CCNC1` [Compound 40, 2-[1-(4-chlorophenyl)-1H-pyrazol-4-yl]-N-propyl-N-[(3S)-pyrrolidin-3-yl]-1,3-thiazole-4-carboxamide], under setting [1], the activation at 0.8 µM lay in the range of 10 to 30%. The same measure, in the same setting: as for `CCCN(C(=O)c1csc(-c2cnn(-c3ccc(Cl)cc3)c2)n1)[C@@H]1CCNC1` [Compound 41, 2-[1-(4-chlorophenyl)-1H-pyrazol-4-yl]-N-propyl-N-[(3R)-pyrrolidin-3-yl]-1,3-thiazole-4-carboxamide], the figure is 10 to 30%; as for `CCCN(C(=O)c1csc(-c2cnn(-c3ccccc3)c2)c1)[C@H]1CCNC1` [Compound 42, 5-(1-phenyl-1H-pyrazol-4-yl)-N-propyl-N-[(3S)-pyrrolidin-3-yl]thiophene-3-carboxamide], 10 to 30%. The same measure, in the same setting: as for `CCCN(C(=O)c1csc(-c2cnn(-c3ccccn3)c2)n1)[C@H]1CCNC1` [Compound 43, N-propyl-2-[1-(pyridin-2-yl)-1H-pyrazol-4-yl]-N-[(3S)-pyrrolidin-3-yl]-1,3-thiazole-4-carboxamide], the figure is 10 to 30%; as for `CCCN(C(=O)c1csc(-c2cnn(-c3ccccn3)c2)n1)[C@@H]1CCNC1` [Compound 44, N-propyl-2-[1-(pyridin-2-yl)-1H-pyrazol-4-yl]-N-[(3R)-pyrrolidin-3-yl]-1,3-thiazole-4-carboxamide], 10 to 30%; as for `CCCN(C(=O)c1csc(-c2cnn(-c3ccc(OC(F)(F)F)cc3)c2)n1)[C@H]1CCNC1` [Compound 45, N-propyl-N-[(3S)-pyrrolidin-3-yl]-2-{1-[4-(trifluoromethoxy)phenyl]-1H-pyrazol-4-yl}-1,3-thiazole-4-carboxamide], 30 to 50%.

As to `CCCN(C(=O)c1csc(-c2cnn(-c3ccc(OC(F)(F)F)cc3)c2)n1)[C@@H]1CCNC1` [Compound 46, N-propyl-N-[(3R)-pyrrolidin-3-yl]-2-{1-[4-(trifluoromethoxy)phenyl]-1H-pyrazol-4-yl}-1,3-thiazole-4-carboxamide], under setting [1], the activation at 0.8 µM is 30 to 50%. `CC(C)N(C(=O)c1csc(-c2cnn(-c3ccccc3C(F)(F)F)c2)n1)C1CCNCC1` [Compound 47, N-(piperidin-4-yl)-N-(propan-2-yl)-2-{1-[2-(trifluoromethyl)phenyl]-1H-pyrazol-4-yl}-1,3-thiazole-4-carboxamide]: the activation at 0.8 µM under setting [1] lay in the range of 30 to 50%. For `CCCN(C(=O)c1csc(-c2cnn(-c3cccc(C(F)(F)F)c3)c2)n1)[C@H]1CCNC1` [Compound 48, N-propyl-N-[(3S)-pyrrolidin-3-yl]-2-{1-[3-(trifluoromethyl)phenyl]-1H-pyrazol-4-yl}-1,3-thiazole-4-carboxamide], the activation at 0.8 µM was 50 to 100% under setting [1] and 50 to 100% under setting [2]. Regarding `CCCN(C(=O)c1csc(-c2cnn(-c3cccc(C(F)(F)F)c3)c2)n1)[C@@H]1CCNC1` [Compound 49, N-propyl-N-[(3R)-pyrrolidin-3-yl]-2-{1-[3-(trifluoromethyl)phenyl]-1H-pyrazol-4-yl}-1,3-thiazole-4-carboxamide], under setting [1], the activation at 0.8 µM lay within 30 to 50%. In the case of `COc1cccc(-n2cc(-c3nc(C(=O)N4CCC[C@@H]4CN)cs3)cn2)c1` [Compound 50, 1-[(2R)-1-{2-[1-(3-methoxyphenyl)-1H-pyrazol-4-yl]-1,3-thiazole-4-carbonyl}pyrrolidin-2-yl]methanamine], the activation at 0.8 µM under setting [1] was 50 to 100% and the activation at 0.8 µM under setting [2] is 50 to 100%. In the case of `CCCN(C(=O)c1csc(-c2cnn(-c3cccc(OC)c3)c2)n1)[C@H]1CCNC1` [Compound 51, 2-[1-(3-methoxyphenyl)-1H-pyrazol-4-yl]-N-propyl-N-[(3S)-pyrrolidin-3-yl]-1,3-thiazole-4-carboxamide], the activation at 0.8 µM under setting [1] fell in the range of 30 to 50%.
